The values below come from US10968266B2, “GIP peptide analogues” (University of Copenhagen, priority 2014, dated 2021).

Molecules are shown by their SMILES.

This experiment relates to perfused rat pancreata. The experiment is described as follows: Somatostatin secretion from isolated perfused rat pancreas. The note with it: 1 nM hGIP or 100 nM GIP(3-30), 7 mM glucose. The procedure: Non-fasted rats were anaesthetized with an IP injection of Hypnorm/Dormicum and the pancreas was dissected and perfused in situ. […] All other aortic branches were ligated. The venous effluent was collected for 1 min intervals via an obstructing cannula inserted into the portal vein, and stored at −20° C. until analysis. The flow rate was kept constant at 4 ml/min. The perfusion medium was continuously gassed with a 95% O2/5% CO2 mixture to achieve pH 7.4, and maintained at 37° C. during the entire experiment.
Pancreatic somatostatin concentrations in venous effluent were analysed by RIA. Somatostatin immunoreactivity was determined using antiserum 1758, which was raised in rabbits against synthetic cyclic somatostatin and recognizes both somatostatin-14 and somatostatin-28 [37, 38].

On to `CC[C@H](C)[C@H](NC(=O)[C@H](CO)NC(=O)[C@H](Cc1ccc(O)cc1)NC(=O)[C@H](CC(=O)O)NC(=O)[C@H](CO)NC(=O)[C@@H](NC(=O)[C@H](Cc1ccccc1)NC(=O)[C@@H](NC(=O)CNC(=O)[C@H](CCC(=O)O)NC(=O)[C@H](C)NC(=O)[C@@H](N)Cc1ccc(O)cc1)[C@@H](C)O)[C@@H](C)CC)C(=O)N[C@@H](C)C(=O)N[C@@H](CCSC)C(=O)N[C@@H](CC(=O)O)C(=O)N[C@@H](CCCCN)C(=O)N[C@H](C(=O)N[C@@H](Cc1c[nH]cn1)C(=O)N[C@@H](CCC(N)=O)C(=O)N[C@@H](CCC(N)=O)C(=O)N[C@@H](CC(=O)O)C(=O)N[C@@H](Cc1ccccc1)C(=O)N[C@H](C(=O)N[C@@H](CC(N)=O)C(=O)N[C@@H](Cc1c[nH]c2ccccc12)C(=O)N[C@@H](CC(C)C)C(=O)N[C@@H](CC(C)C)C(=O)N[C@@H](C)C(=O)N[C@@H](CCC(N)=O)C(=O)N[C@@H](CCCCN)C(=O)NCC(=O)N[C@@H](CCCCN)C(=O)N[C@@H](CCCCN)C(=O)N[C@@H](CC(N)=O)C(=O)N[C@@H](CC(=O)O)C(=O)N[C@@H](Cc1c[nH]c2ccccc12)C(=O)N[C@@H](CCCCN)C(=O)N[C@@H](Cc1c[nH]cn1)C(=O)N[C@@H](CC(N)=O)C(=O)N[C@H](C(=O)N[C@H](C(=O)N[C@@H](CCC(N)=O)C(=O)O)[C@@H](C)O)[C@@H](C)CC)C(C)C)[C@@H](C)CC` [GIP(1-42)], for which the “Somatostatin secretion induced by the peptide alone” value is given as “robust somatostatin secretion”.
